# In patent US20230309520A1, “AGE-RELATED HEARING LOSS ANIMAL MODEL AND CONSTRUCTION METHOD THEREFOR” (UNIVERSITY INDUSTRY FOUNDATION, YONSEI UNIVERSITY WONJU …, priority 2020, published 2023):
# Assays:
# SOD = assay: Superoxide dismutase (SOD) activity test in serum; assay type: in vivo, C57BL/6 mice; parameters: unit not given here
# Description: Specifically, the blood was reacted in an anticoagulant tube at 25° C. (room temperature) for 30 minutes, and then centrifuged at 2,000 × g for 15 minutes at 4° C. to prepare purified serum. The purified serum was stored at -80° C. for one month and diluted 1:5 with sample buffer before analysis, and then the amount of SOD in the body was measured using an SOD assay kit (No. 706002, Cayman Che., MI, USA). The SOD assay kit is a kit that uses tetrazolium salt to detect superoxide radicals generated by xanthine oxidase and hypoxanthine. […] The amount of oxidative stress in serum was analyzed by analyzing the SOD activity test result in Experimental Example <1-5>.
# [1] = Auditory brainstem response test (ABR-TEST), hearing threshold; assay type: in vivo, C57BL/6 mice; conditions: for hearing threshold: hypoxia
# Description: The wave V reference value of ABR was determined by gradually attenuating the sound intensity in 5 dB steps from 80 dB SPL until the wave V and the noise floor were indistinguishable from the recorded traces. Data management and auditory brainstem response test were conducted using the TDT RZ6/BioSigRZ system (Tucker Davis Technologies, Alachua, FL, USA) in a noise attenuation chamber with a built-in Faraday box.
# Electrodes were disposed on the subcutaneous tissue of each mouse to collect data. […] An isothermal pad was used to maintain the body temperature of the mouse, and the ABR test was conducted every two weeks for stability of the experimental groups.
# auditory hair cells = assay: Hair cell survival and damage by Myo7a immunostaining of cochlear slices; assay type: in vivo, C57BL/6 mice; conditions: normoxia; single condition
# Description: Specifically, an opening was made at the apex of the cochlear bone of the sacrificed mouse, and phosphate buffered saline at pH 7.4 containing 4% paraformaldehyde as a fixative was perfused at room temperature. The cochlea perfused with a fixative was immersed in Calci-Clear Rapid for 24 hours to demineralize, an OCT (Optimal Cutting Temperature) compound was inserted, and then the cochlea was cut into slices with a thickness of 2 to 5 µm using LEICA RM2145 (Leica Biosystems, Wetzlar, German). The cut cochlea was incubated in standard hematoxylin for 3 minutes and stained with eosin (H&E) for 60 seconds.
# Specifically, the cochlear slice was fixed on a gelatin-coated slide having a thickness of 5 µm with 4% paraformaldehyde for 15 minutes and then dried at room temperature. The slice was incubated with 5% normal goat serum at room temperature for 1 hour to prevent nonspecific labeling, and incubated with primary antibody MY07A (1:200, ab3481, Abeam, UK) at 4° C. for 1 hour. […]
# The images of auditory hair cells of all the cochlear slices were analyzed using a confocal microscope (Carl Zeiss Microscopy GmbH, Jena, Germany) and ZEN lite ver.2.3 (ZEN lite, Jena, Germany) software.
# The survival rate was evaluated by analyzing Myo7a, a major protein present in auditory hair cells.
# [2] = mouse
structure (smiles),measurement,setting,value
"O=C[C@H](O)[C@@H](O)[C@@H](O)[C@H](O)CO [GI, D-galactose]",amount of SOD in serum,"SOD; hypoxia, 0 M",0.5914 ±0.000
same,amount of SOD in serum,"SOD; hypoxia, 1 M",0.5627 ± 0.005
same,amount of SOD in serum,"SOD; hypoxia, 2 M",0.5463 ± 0.005
same,amount of SOD in serum,"SOD; hypoxia, 3 M",0.5695 ± 0.059
same,amount of SOD in serum,"SOD; normoxia, 0 M",0.5955 ± 0.017
same,amount of SOD in serum,"SOD; normoxia, 1 M",0.5463 ± 0.005
same,amount of SOD in serum,"SOD; normoxia, 2 M",0.5216 ± 0.005
same,amount of SOD in serum,"SOD; normoxia, 3 M",0.5148 ± 0.028
same,hearing threshold,"[1]; 8, 16, 24 kHz analysis, initial value (increased from)",30 dB
same,hearing threshold,"[1]; 8, 16, 24 kHz analysis, value after 1 month (increased to)",60 dB
same,hearing threshold,"[1]; 8 kHz, final value (increased to), 3 months",67 + 10.13 dB
same,hearing threshold,"[1]; 8 kHz, initial value (increased from)",34 + 3.76 dB
same,hearing threshold,"[1]; 16 kHz, final value (increased to), 3 months",60 + 7.33 dB
same,hearing threshold,"[1]; 16 kHz, initial value (increased from)",38 + 4.08 dB
same,change in hearing threshold compared to control group,"[1]; normoxia, 8, 16, and 24 kHz",do not change significantly
same,change in the hearing threshold,"[1]; normoxia, 8 kHz",no significant change
same,changes in the hearing thresholds,"[1]; normoxia, frequencies of 4 to 32 kHz, 3 months",no significant changes
same,damage to hair cells,auditory hair cells,almost no damage to cells
same,Dermis Thickness,[2],348.5 ±85.9
